From patent US9084828B2, “Oligomer-protein tyrosine kinase inhibitor conjugates” (Nektar Therapeutics, priority 2009, dated 2015)

Legend:
Format in all cases: biochemical
HCK = HCK (Homo sapiens, UniProt P08631); assay: Activity against various protein tyrosine kinases: HCK
EGFR = EGFR (Homo sapiens, UniProt P00533); assay: Activity against various protein tyrosine kinases: EGFR
FGFR3 = FGFR3 (Homo sapiens, UniProt P22607); assay: Activity against various protein tyrosine kinases: FGFR3
PDGFR_beta = PDGFR_beta (Homo sapiens, UniProt P09619); assay: Activity against various protein tyrosine kinases: PDGFR_beta
AurB = AurB (Homo sapiens, UniProt Q96GD4); assay: Activity against various protein tyrosine kinases: AurB
FGFR2 = FGFR2 (Homo sapiens, UniProt P21802); assay: Activity against various protein tyrosine kinases: FGFR2
p38-beta2 = p38-beta2 (Homo sapiens, UniProt Q15759); assay: Activity against various protein tyrosine kinases: p38-beta2
MAPKAPK2 = MAPKAPK2 (Homo sapiens, UniProt P49137); assay: Activity against various protein tyrosine kinases: MAPKAPK2
FGFR4 = FGFR4 (Homo sapiens, UniProt P22455); assay: Activity against various protein tyrosine kinases: FGFR4
FYN = FYN (Homo sapiens, UniProt P06241); assay: Activity against various protein tyrosine kinases: FYN
Flt3(D835Y) = target: T1, Flt3(D835Y) (Homo sapiens, UniProt P36888, D835Y); assay: Activity against various protein tyrosine kinases: Flt3(D835Y)
T1 sequence (P36888 27-993 D835Y): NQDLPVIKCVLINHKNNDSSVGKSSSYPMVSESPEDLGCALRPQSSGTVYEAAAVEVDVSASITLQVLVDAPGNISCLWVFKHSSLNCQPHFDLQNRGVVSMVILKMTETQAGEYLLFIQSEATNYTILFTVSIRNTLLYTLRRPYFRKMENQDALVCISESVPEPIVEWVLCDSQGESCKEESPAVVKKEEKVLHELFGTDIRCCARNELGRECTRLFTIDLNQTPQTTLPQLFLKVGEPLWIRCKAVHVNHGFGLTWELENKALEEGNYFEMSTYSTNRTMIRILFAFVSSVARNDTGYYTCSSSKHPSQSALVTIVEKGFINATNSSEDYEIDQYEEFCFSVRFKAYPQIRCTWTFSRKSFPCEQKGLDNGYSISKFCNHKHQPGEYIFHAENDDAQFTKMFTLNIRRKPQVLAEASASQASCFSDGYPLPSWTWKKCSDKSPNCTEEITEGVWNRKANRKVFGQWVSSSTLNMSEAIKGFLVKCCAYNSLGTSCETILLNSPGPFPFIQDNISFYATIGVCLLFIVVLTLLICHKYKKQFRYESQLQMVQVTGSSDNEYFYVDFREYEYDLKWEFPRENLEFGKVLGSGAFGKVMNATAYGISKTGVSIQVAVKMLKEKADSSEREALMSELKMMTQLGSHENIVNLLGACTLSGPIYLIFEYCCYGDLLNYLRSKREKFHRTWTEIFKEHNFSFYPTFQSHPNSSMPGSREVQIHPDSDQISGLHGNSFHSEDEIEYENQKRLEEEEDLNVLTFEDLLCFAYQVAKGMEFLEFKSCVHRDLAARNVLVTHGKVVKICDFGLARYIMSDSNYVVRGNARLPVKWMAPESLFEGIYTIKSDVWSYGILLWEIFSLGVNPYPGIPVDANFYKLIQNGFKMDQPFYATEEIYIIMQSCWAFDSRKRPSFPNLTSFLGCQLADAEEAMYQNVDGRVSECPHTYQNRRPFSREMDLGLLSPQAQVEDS
Protocol: (§1) Using techniques know those of ordinary skill in the art, compounds were tested for activity against various protein tyrosine kinases.

EPHA2 = EPHA2 (Homo sapiens, UniProt P29317); assay: Activity against various protein tyrosine kinases: EPHA2
Fer = Fer (Homo sapiens, UniProt P16591); assay: Activity against various protein tyrosine kinases: Fer
MAPKAPK3 = MAPKAPK3 (Homo sapiens, UniProt Q16644); assay: Activity against various protein tyrosine kinases: MAPKAPK3
GSK3b = GSK3b (Homo sapiens, UniProt P49841); assay: Activity against various protein tyrosine kinases: GSK3b
TSSK2 = target: T2, TSSK2 (Homo sapiens, UniProt Q96PF2); assay: Activity against various protein tyrosine kinases: TSSK2
T2 sequence (Q96PF2 1-358): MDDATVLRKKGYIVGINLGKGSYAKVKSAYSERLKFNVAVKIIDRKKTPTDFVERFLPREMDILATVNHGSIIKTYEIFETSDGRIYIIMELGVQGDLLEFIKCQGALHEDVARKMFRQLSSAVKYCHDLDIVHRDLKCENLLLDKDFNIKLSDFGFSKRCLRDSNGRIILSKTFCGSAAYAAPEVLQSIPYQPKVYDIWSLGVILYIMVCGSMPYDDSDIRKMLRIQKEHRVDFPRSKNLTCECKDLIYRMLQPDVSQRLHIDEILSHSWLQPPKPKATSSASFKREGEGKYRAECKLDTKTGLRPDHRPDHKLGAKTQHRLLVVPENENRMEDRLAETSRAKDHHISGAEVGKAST

CaMKII (gamma) = CaMKII (gamma) (Homo sapiens, UniProt Q13555); assay: Activity against various protein tyrosine kinases: CaMKII (gamma)
SRC = SRC (Homo sapiens, UniProt P12931); assay: Activity against various protein tyrosine kinases: SRC
Erk2 = Erk2 (Homo sapiens, UniProt P28482); assay: Activity against various protein tyrosine kinases: Erk2
ABL(T315I) = ABL(T315I) (Homo sapiens, UniProt P00519, T315I); assay: Activity against various protein tyrosine kinases: ABL(T315I)
Protocol: as §1

p38a = p38a (Homo sapiens, UniProt Q16539); assay: Activity against various protein tyrosine kinases: p38a
Sequence of p38a (Q16539 whole entry): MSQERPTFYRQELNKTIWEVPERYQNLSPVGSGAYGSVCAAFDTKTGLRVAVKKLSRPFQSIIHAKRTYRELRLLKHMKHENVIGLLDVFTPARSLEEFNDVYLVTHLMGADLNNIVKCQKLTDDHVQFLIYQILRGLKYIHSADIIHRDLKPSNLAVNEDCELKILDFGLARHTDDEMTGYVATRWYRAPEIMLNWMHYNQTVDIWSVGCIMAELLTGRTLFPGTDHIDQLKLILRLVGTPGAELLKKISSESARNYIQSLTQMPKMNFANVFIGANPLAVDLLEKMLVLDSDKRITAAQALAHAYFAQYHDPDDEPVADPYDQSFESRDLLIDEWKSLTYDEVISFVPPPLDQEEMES

Sequence of HCK (P08631 whole entry, species assumed): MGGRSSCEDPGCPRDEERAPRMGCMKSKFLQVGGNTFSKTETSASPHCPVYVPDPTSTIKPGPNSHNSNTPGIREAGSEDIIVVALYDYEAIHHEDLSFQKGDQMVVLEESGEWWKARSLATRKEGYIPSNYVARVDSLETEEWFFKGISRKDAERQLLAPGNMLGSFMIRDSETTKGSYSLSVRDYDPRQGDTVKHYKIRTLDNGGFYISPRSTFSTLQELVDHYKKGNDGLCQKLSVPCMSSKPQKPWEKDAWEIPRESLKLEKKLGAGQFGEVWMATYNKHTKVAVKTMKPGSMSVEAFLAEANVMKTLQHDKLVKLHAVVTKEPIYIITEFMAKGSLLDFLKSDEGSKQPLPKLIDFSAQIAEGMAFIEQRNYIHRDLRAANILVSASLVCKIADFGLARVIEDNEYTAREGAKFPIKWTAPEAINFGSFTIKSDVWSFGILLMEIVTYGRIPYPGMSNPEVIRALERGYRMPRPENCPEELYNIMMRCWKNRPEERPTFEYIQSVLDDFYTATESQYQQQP
Sequence of FGFR3 (P22607 23-806, species assumed): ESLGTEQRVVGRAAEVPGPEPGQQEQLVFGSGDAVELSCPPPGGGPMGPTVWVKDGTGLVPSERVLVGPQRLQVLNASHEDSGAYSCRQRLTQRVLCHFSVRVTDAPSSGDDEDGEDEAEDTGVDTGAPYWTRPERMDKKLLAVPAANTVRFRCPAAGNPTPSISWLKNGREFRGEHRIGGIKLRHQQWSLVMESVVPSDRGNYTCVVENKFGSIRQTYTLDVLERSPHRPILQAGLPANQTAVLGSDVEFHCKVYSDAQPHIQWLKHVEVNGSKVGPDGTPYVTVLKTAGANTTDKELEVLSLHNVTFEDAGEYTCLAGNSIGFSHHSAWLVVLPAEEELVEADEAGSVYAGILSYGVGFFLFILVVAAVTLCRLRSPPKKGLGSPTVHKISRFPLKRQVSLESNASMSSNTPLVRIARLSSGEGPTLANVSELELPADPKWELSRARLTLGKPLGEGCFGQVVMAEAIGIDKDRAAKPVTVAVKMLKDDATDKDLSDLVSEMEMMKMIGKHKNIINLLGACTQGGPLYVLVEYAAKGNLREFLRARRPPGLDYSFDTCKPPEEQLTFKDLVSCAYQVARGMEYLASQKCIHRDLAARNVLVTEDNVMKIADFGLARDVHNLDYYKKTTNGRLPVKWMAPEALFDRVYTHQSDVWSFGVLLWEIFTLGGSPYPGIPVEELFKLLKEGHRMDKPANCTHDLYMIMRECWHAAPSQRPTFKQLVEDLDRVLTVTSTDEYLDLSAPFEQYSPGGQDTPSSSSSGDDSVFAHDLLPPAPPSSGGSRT
Sequence of EPHA2 (P29317 24-976, species assumed): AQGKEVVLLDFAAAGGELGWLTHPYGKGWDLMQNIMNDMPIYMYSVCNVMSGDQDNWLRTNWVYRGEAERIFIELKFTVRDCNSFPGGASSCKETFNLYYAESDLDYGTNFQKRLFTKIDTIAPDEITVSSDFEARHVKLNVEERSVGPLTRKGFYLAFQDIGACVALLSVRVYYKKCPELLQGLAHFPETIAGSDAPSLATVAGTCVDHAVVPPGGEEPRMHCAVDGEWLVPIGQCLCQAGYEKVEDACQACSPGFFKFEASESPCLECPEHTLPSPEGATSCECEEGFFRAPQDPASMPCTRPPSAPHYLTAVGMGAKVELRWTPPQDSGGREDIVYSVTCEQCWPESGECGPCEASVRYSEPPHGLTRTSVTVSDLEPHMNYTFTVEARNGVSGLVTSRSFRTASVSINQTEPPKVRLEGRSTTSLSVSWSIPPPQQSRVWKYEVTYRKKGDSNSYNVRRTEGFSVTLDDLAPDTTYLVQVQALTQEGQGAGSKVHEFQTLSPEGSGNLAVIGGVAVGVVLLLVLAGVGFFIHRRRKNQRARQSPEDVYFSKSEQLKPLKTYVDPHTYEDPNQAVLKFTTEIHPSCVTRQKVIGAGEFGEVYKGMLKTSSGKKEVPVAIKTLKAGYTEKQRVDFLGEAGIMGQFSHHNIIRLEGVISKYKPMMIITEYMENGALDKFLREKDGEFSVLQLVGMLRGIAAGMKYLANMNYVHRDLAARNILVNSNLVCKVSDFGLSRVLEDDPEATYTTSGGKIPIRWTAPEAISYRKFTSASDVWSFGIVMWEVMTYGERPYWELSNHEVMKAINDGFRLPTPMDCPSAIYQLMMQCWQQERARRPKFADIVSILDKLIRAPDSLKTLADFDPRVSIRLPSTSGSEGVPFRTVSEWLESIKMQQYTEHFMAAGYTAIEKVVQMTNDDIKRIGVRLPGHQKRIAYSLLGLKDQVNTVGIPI
Sequence of GSK3b (P49841 whole entry, species assumed): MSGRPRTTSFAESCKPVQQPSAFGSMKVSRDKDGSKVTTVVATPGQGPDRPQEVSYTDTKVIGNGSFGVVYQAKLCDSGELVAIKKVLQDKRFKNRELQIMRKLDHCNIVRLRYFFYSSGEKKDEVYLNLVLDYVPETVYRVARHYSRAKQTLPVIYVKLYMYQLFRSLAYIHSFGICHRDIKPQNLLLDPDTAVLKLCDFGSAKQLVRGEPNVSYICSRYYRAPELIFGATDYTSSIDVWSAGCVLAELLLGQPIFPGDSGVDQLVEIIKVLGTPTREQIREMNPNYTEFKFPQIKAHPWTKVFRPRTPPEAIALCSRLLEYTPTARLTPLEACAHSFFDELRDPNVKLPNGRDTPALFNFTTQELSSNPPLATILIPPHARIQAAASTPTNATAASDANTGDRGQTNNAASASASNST
Sequence of FGFR2 (P21802 22-821, species assumed): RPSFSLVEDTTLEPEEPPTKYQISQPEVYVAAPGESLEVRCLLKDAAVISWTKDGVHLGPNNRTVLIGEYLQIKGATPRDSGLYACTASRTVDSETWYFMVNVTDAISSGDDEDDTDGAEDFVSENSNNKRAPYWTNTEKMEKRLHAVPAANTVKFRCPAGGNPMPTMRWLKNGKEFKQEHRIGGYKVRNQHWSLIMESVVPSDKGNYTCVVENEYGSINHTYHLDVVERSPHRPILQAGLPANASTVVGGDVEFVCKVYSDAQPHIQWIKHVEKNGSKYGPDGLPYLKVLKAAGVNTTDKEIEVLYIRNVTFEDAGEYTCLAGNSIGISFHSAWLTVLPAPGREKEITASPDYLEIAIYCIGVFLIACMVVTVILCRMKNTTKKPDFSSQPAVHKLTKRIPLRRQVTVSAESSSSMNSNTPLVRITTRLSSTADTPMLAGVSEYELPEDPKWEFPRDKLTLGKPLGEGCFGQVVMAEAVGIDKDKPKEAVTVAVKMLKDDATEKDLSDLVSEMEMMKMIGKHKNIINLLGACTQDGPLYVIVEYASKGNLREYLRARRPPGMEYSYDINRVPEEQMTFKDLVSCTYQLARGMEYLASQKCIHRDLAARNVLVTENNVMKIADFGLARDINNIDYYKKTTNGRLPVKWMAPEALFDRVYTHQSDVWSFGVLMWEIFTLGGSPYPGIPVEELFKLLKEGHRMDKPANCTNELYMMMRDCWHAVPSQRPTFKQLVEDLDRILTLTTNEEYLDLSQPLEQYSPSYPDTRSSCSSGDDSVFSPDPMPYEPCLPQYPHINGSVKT
Sequence of Fer (P16591 whole entry, species assumed): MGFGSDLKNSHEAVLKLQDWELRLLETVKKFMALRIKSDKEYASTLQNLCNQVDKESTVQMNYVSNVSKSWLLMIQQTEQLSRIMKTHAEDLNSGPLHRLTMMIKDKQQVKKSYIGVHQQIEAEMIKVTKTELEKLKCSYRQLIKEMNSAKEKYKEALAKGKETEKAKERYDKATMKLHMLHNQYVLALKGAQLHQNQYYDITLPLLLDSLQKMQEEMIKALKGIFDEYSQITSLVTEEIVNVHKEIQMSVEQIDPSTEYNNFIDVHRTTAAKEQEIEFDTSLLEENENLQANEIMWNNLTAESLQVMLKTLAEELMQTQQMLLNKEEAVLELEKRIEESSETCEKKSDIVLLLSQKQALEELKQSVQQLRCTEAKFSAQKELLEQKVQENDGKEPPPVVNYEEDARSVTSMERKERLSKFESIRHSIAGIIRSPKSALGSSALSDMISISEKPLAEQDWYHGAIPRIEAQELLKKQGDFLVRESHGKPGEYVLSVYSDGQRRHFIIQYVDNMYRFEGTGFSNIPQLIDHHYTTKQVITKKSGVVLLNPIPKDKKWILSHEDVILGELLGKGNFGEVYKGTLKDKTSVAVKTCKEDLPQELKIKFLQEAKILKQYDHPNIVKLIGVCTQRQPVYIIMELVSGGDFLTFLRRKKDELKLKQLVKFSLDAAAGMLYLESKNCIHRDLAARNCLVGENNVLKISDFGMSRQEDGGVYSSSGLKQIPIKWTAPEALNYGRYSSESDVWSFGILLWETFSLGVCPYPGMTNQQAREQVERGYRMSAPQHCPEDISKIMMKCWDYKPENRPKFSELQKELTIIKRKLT
Sequence of AurB (Q96GD4 whole entry): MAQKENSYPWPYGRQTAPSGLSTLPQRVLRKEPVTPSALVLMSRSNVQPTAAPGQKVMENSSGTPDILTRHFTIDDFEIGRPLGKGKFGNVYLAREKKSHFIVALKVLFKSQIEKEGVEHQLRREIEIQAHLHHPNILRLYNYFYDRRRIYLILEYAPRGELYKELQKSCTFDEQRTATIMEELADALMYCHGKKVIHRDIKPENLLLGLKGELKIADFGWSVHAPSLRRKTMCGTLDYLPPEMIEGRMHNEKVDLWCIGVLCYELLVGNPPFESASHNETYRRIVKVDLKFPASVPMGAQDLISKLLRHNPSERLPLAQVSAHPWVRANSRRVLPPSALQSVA

SMILES: COCCOCCOCCNC(=O)OCCN1CCN(c2cc(Nc3ncc(C(=O)Nc4c(C)cccc4Cl)s3)nc(C)n2)CC1 [mPEG3-NHCOO-Dasatinib]
- % Inhibition at 10 nM (HCK): 98%
- % Inhibition at 1 μM (HCK): 98%
- % Inhibition at 10 nM (EGFR): 3%
- % Inhibition at 1 μM (EGFR): 76%
- % Inhibition at 10 nM (FGFR3): 3%
- % Inhibition at 1 μM (FGFR3): 11%
- % Inhibition at 10 nM (PDGFR_beta): 48%
- % Inhibition at 1 μM (PDGFR_beta): 99%
- % Inhibition at 10 nM (AurB): −1%
- % Inhibition at 1 μM (AurB): 4%
- % Inhibition at 10 nM (FGFR2): −2%
- % Inhibition at 1 μM (FGFR2): 38%
- % Inhibition at 10 nM (p38-beta2): 3%
- % Inhibition at 1 μM (p38-beta2): 48%
- % Inhibition at 10 nM (MAPKAPK2): 1%
- % Inhibition at 1 μM (MAPKAPK2): −1%
- % Inhibition at 10 nM (FGFR4): 3%
- % Inhibition at 1 μM (FGFR4): 6%
- % Inhibition at 10 nM (FYN): 98%
- % Inhibition at 1 μM (FYN): 99%
- % Inhibition at 10 nM (Flt3(D835Y)): 6%
- % Inhibition at 1 μM (Flt3(D835Y)): 10%
- % Inhibition at 10 nM (EPHA2): 40%
- % Inhibition at 1 μM (EPHA2): 100%
- % Inhibition at 10 nM (Fer): −4%
- % Inhibition at 1 μM (Fer): 5%
- % Inhibition at 10 nM (MAPKAPK3): 5%
- % Inhibition at 1 μM (MAPKAPK3): 3%
- % Inhibition at 10 nM (GSK3b): 4%
- % Inhibition at 1 μM (GSK3b): 1%
- % Inhibition at 10 nM (TSSK2): −1%
- % Inhibition at 1 μM (TSSK2): 0%
- % Inhibition at 10 nM (CaMKII (gamma)): 2%
- % Inhibition at 1 μM (CaMKII (gamma)): 2%
- % Inhibition at 10 nM (SRC): 99%
- % Inhibition at 1 μM (SRC): 99%
- % Inhibition at 10 nM (Erk2): 6%
- % Inhibition at 1 μM (Erk2): 11%
- % Inhibition at 10 nM (ABL(T315I)): 1%
- % Inhibition at 1 μM (ABL(T315I)): 36%
- % Inhibition at 10 nM (p38a): 6%
- % Inhibition at 1 μM (p38a): 81%

SMILES: COCCOCCOCCOCCOCCOCCOCCNC(=O)OCCN1CCN(c2cc(Nc3ncc(C(=O)Nc4c(C)cccc4Cl)s3)nc(C)n2)CC1 [mPEG7-NHCOO-Dasatinib]
- % Inhibition at 10 nM (HCK): 98%
- % Inhibition at 1 μM (HCK): 99%
- % Inhibition at 10 nM (EGFR): 6%
- % Inhibition at 1 μM (EGFR): 62%
- % Inhibition at 10 nM (FGFR3): 2%
- % Inhibition at 1 μM (FGFR3): 10%
- % Inhibition at 10 nM (PDGFR_beta): 60%
- % Inhibition at 1 μM (PDGFR_beta): 100%
- % Inhibition at 10 nM (AurB): 0%
- % Inhibition at 1 μM (AurB): 4%
- % Inhibition at 10 nM (FGFR2): 5%
- % Inhibition at 1 μM (FGFR2): 35%
- % Inhibition at 10 nM (p38-beta2): 0%
- % Inhibition at 1 μM (p38-beta2): 35%
- % Inhibition at 10 nM (MAPKAPK2): 3%
- % Inhibition at 1 μM (MAPKAPK2): 7%
- % Inhibition at 10 nM (FGFR4): 0%
- % Inhibition at 1 μM (FGFR4): 2%
- % Inhibition at 10 nM (FYN): 98%
- % Inhibition at 1 μM (FYN): 98%
- % Inhibition at 10 nM (Flt3(D835Y)): 3%
- % Inhibition at 1 μM (Flt3(D835Y)): 7%
- % Inhibition at 10 nM (EPHA2): 36%
- % Inhibition at 1 μM (EPHA2): 101%
- % Inhibition at 10 nM (Fer): −2%
- % Inhibition at 1 μM (Fer): 5%
- % Inhibition at 10 nM (MAPKAPK3): 1%
- % Inhibition at 1 μM (MAPKAPK3): 0%
- % Inhibition at 10 nM (GSK3b): 3%
- % Inhibition at 1 μM (GSK3b): 2%
- % Inhibition at 10 nM (TSSK2): 3%
- % Inhibition at 1 μM (TSSK2): −2%
- % Inhibition at 10 nM (CaMKII (gamma)): 6%
- % Inhibition at 1 μM (CaMKII (gamma)): 3%
- % Inhibition at 10 nM (SRC): 98%
- % Inhibition at 1 μM (SRC): 98%
- % Inhibition at 10 nM (Erk2): 3%
- % Inhibition at 1 μM (Erk2): 2%
- % Inhibition at 10 nM (ABL(T315I)): 4%
- % Inhibition at 1 μM (ABL(T315I)): 26%
- % Inhibition at 10 nM (p38a): 5%
- % Inhibition at 1 μM (p38a): 74%
